# Species on record: Rattus norvegicus
# Experiment: DrugMatrix - Regimen: Daily Repeat
# Assay type: toxicity, organism-based, Sprague-Dawley
# Parameters: regimen Daily Repeat, gender Male, age 6-8 weeks
# Conditions: in vivo, po, 1100 mg/kg, route oral GAVAGE, dose level High, vehicle .5 % CMC; for ABSOLUTE BASOPHIL / ABSOLUTE EOSINOPHIL / ABSOLUTE LYMPHOCYTE / ABSOLUTE MONOCYTE / ABSOLUTE SEGMENTED NEUTROPHIL / BASOPHIL / EOSINOPHIL / ERYTHROCYTE COUNT / HEMATOCRIT / HEMOGLOBIN / LEUKOCYTE COUNT / LYMPHOCYTE / MEAN CORPUSCULAR HEMOGLOBIN / MEAN CORPUSCULAR HEMOGLOBIN CONCENTRATION / MEAN CORPUSCULAR VOLUME / MONOCYTE / NEUTROPHIL / NUCLEATED RED BLOOD CELLS / PLATELET COUNT: tissue Blood; for ALANINE AMINOTRANSFERASE / ALBUMIN / ALKALINE PHOSPHATASE / ASPARTATE AMINOTRANSFERASE / BLOOD UREA NITROGEN / CARBON DIOXIDE / CHLORIDE / CHOLESTEROL / CREATINE PHOSPHOKINASE / CREATININE / GLUCOSE / LACTATE DEHYDROGENASE / LIPASE / PHOSPHORUS / POTASSIUM / SODIUM / TOTAL BILIRUBIN / URIC ACID: tissue Plasma
smiles,measurement,setting,value
COc1cc(NS(=O)(=O)c2ccc(N)cc2)nc(OC)n1 [SULFADIMETHOXINE],ABSOLUTE BASOPHIL,"72 h, time 3 day",0 CELLS/uL
same,ABSOLUTE EOSINOPHIL,"72 h, time 3 day",176 CELLS/uL
same,ABSOLUTE LYMPHOCYTE,"72 h, time 3 day",8678 CELLS/uL
same,ABSOLUTE MONOCYTE,"72 h, time 3 day",307.33 CELLS/uL
same,ABSOLUTE SEGMENTED NEUTROPHIL,"72 h, time 3 day",1105.33 CELLS/uL
same,BASOPHIL,"72 h, time 3 day",0%
same,EOSINOPHIL,"72 h, time 3 day",1.67%
same,ERYTHROCYTE COUNT,"72 h, time 3 day",5.56 x10E6/uL
same,HEMATOCRIT,"72 h, time 3 day",35.03%
same,HEMOGLOBIN,"72 h, time 3 day",13.43 G/DL
same,LEUKOCYTE COUNT,"72 h, time 3 day",10.27 x10E3/uL
same,LYMPHOCYTE,"72 h, time 3 day",84.67%
same,MEAN CORPUSCULAR HEMOGLOBIN,"72 h, time 3 day",24.13 pg
same,MEAN CORPUSCULAR HEMOGLOBIN CONCENTRATION,"72 h, time 3 day",38.37 G/DL
same,MEAN CORPUSCULAR VOLUME,"72 h, time 3 day",62.93 fL
same,MONOCYTE,"72 h, time 3 day",3%
same,NEUTROPHIL,"72 h, time 3 day",10.67%
same,NUCLEATED RED BLOOD CELLS,"72 h, time 3 day",0 /100WBC
same,PLATELET COUNT,"72 h, time 3 day",1279 x10E3/uL
same,ALANINE AMINOTRANSFERASE,"72 h, time 3 day",62.67 u/L
same,ALBUMIN,"72 h, time 3 day",4.6 G/DL
same,ALKALINE PHOSPHATASE,"72 h, time 3 day",393.67 u/L
same,ASPARTATE AMINOTRANSFERASE,"72 h, time 3 day",75.67 u/L
same,BLOOD UREA NITROGEN,"72 h, time 3 day",18 mg/dL
same,CARBON DIOXIDE,"72 h, time 3 day",27.67 mmol/L
same,CHLORIDE,"72 h, time 3 day",102.67 MEQ/L
same,CHOLESTEROL,"72 h, time 3 day",67.67 mg/dL
same,CREATINE PHOSPHOKINASE,"72 h, time 3 day",189.67 u/L
same,CREATININE,"72 h, time 3 day",0.32 mg/dL
same,GLUCOSE,"72 h, time 3 day",153.33 mg/dL
same,LACTATE DEHYDROGENASE,"72 h, time 3 day",129.33 u/L
same,LIPASE,"72 h, time 3 day",9.33 u/L
same,PHOSPHORUS,"72 h, time 3 day",12.17 mg/dL
same,POTASSIUM,"72 h, time 3 day",6.03 MEQ/L
same,SODIUM,"72 h, time 3 day",145.53 MEQ/L
same,TOTAL BILIRUBIN,"72 h, time 3 day",0.17 mg/dL
same,URIC ACID,"72 h, time 3 day",1.37 mg/dL
same,ABSOLUTE BASOPHIL,"120 h, time 5 day",0 CELLS/uL
same,ABSOLUTE EOSINOPHIL,"120 h, time 5 day",186.33 CELLS/uL
same,ABSOLUTE LYMPHOCYTE,"120 h, time 5 day",11316.33 CELLS/uL
same,ABSOLUTE MONOCYTE,"120 h, time 5 day",266.33 CELLS/uL
same,ABSOLUTE SEGMENTED NEUTROPHIL,"120 h, time 5 day",1431 CELLS/uL
same,BASOPHIL,"120 h, time 5 day",0%
same,EOSINOPHIL,"120 h, time 5 day",1.33%
same,ERYTHROCYTE COUNT,"120 h, time 5 day",5.62 x10E6/uL
same,HEMATOCRIT,"120 h, time 5 day",35.53%
same,HEMOGLOBIN,"120 h, time 5 day",13.53 G/DL
same,LEUKOCYTE COUNT,"120 h, time 5 day",13.2 x10E3/uL
same,LYMPHOCYTE,"120 h, time 5 day",86%
same,MEAN CORPUSCULAR HEMOGLOBIN,"120 h, time 5 day",24.1 pg
same,MEAN CORPUSCULAR HEMOGLOBIN CONCENTRATION,"120 h, time 5 day",38.1 G/DL
same,MEAN CORPUSCULAR VOLUME,"120 h, time 5 day",63.17 fL
same,MONOCYTE,"120 h, time 5 day",2%
same,NEUTROPHIL,"120 h, time 5 day",10.67%
same,NUCLEATED RED BLOOD CELLS,"120 h, time 5 day",0 /100WBC
same,PLATELET COUNT,"120 h, time 5 day",1313.67 x10E3/uL
same,ALANINE AMINOTRANSFERASE,"120 h, time 5 day",48.67 u/L
same,ALBUMIN,"120 h, time 5 day",4.57 G/DL
same,ALKALINE PHOSPHATASE,"120 h, time 5 day",294.67 u/L
same,ASPARTATE AMINOTRANSFERASE,"120 h, time 5 day",97 u/L
same,BLOOD UREA NITROGEN,"120 h, time 5 day",21.67 mg/dL
same,CARBON DIOXIDE,"120 h, time 5 day",25.33 mmol/L
same,CHLORIDE,"120 h, time 5 day",102.33 MEQ/L
same,CHOLESTEROL,"120 h, time 5 day",65 mg/dL
same,CREATINE PHOSPHOKINASE,"120 h, time 5 day",679 u/L
same,CREATININE,"120 h, time 5 day",0.26 mg/dL
same,GLUCOSE,"120 h, time 5 day",151.67 mg/dL
same,LACTATE DEHYDROGENASE,"120 h, time 5 day",445 u/L
same,LIPASE,"120 h, time 5 day",8.67 u/L
same,PHOSPHORUS,"120 h, time 5 day",11.87 mg/dL
same,POTASSIUM,"120 h, time 5 day",5.23 MEQ/L
same,SODIUM,"120 h, time 5 day",144.1 MEQ/L
same,TOTAL BILIRUBIN,"120 h, time 5 day",0.1 mg/dL
same,URIC ACID,"120 h, time 5 day",1.4 mg/dL

# Reference: ChEMBL document CHEMBL3885881, “DrugMatrix”
